US20230183228A1, “SUBSTITUTED PYRAZOLYL COMPOUNDS AND METHODS OF USE THEREOF” (Chinook Therapeutics Canada, Inc., priority 2020, published 2023)

Columns and labels:
[1] = Liver-targeted tissue distribution profile study in rats; format: in vivo, Sprague Dawley rats; conditions: rat, single 10 mg/kg PO
Procedure: Plasma and liver (target organ) concentrations of test compounds were determined in rats following a single per os (PO) administration of the test compounds. Male Sprague Dawley rats (6-8 weeks of age, Charles River Labs) were fasted overnight and a single dose of test compounds (10 mg/kg; as a suspension in 0.5% methyl cellulose) was administered by PO gavage. Rats were then sacrificed at 4 and 24 h after administration of the test compounds, and plasma and liver tissue samples were collected. Liver tissue samples were homogenized in 5 volumes of water:acetonitrile (50/50; v/v) mixture using a bead mill homogenizer. Plasma and liver homogenate samples were processed by protein precipitation using acetonitrile and the concentrations of the test compounds were determined by liquid chromatography-tandem mass spectrometry (SciEx triple quad 5500+ with Exion UPLC).
Liver and plasma exposures at the 4 h and 24 h timepoints for the various compounds are described in Table 5 below. Measured compound concentrations are as follows: ++++>10 μM; 10 μM≥+++>5 μM; 5 μM≥++>1 μM; 1 μM≥+>0.25 μM; and 0.25 μM≥−.

[2] = tested on: fresh primary mouse hepatocytes; assay: Primary mouse hepatocyte assay (lactate production); format: cell-based
Procedure: Compounds were evaluated in an ex vivo assay consisting of fresh primary mouse hepatocytes. Hepatocytes were isolated from wild type mice (C57BL/6NCrl from Charles River Labs) using a two-step collagenase perfusion technique which involves a sequential perfusion of anesthetized mice with Hanks' balanced salt solution and collagenase. Following isolation, viable wild type hepatocytes (0.1 M cells/well) were incubated with test compound in presence of pyruvate and compound potency was evaluated by measuring the lactate produced by the cells using liquid chromatography coupled to mass spectrometry. Chromatographic separation was achieved on an XDB-C18 4.6×50 mm column (Agilent, Cat #927975-902) at a flow rate of 1 mL/min Mobile phase A consisted of 0.1% formic acid in water and mobile phase B consisted of acetonitrile. A gradient program was initiated starting at 5% B which was held for 1 minutes, then ramped from 5% to 95% B over 1 minute. After holding at 95% B for 1 minute, the program changed back to 5% B. The column was equilibrated with 5% B for […] before the next injection. The mass spectrometer was operated in negative mode with electrospray ionization. The following transition along with their collision energy (CE) were used: 89→43 (CE: −16 V) for lactate and 92→45 (CE: −16 V) for ^13C3-Lactate (internal standard).

[3] = molecular target: T1, human recombinant C-terminal His-tagged LDHA (Homo sapiens, UniProt P00338); assay: Human LDHA enzyme assay; format: biochemical; conditions: 50 μM pyruvate, 50 μM NADH, no HSA
T1 construct: His (C)
Procedure: (§1) Compounds were dissolved in DMSO and preincubated with human recombinant C-terminal His-tagged LDHA (0.070 μg/mL) for 10 min at room temperature in assay buffer consisting 50 mM Tris, pH 7.5 and 100 mM NaCl in black walled, clear bottom, non-binding 96-well plates. Equal volumes of substrate solution containing 100 μM of pyruvate and 100 μM of NADH in assay buffer was added to each well (final concentration 0.035 μg/mL enzyme, 50 μM pyruvate, 50 μM NADH, and 1% DMSO). For human serum albumin (HSA) shift assay, the compounds were preincubated with the enzyme in assay buffer containing 20% HSA before substrate addition (final concentration 10% HSA). The reaction was monitored at 340 nm on a plate reader (Molecular Devices) in kinetic mode for 15 min. The rate of the reaction was determined by plotting absorbance vs time.

[4] = molecular target: T1, human recombinant C-terminal His-tagged LDHA; assay: Human LDHA enzyme assay, human serum albumin (HSA) shift; format: biochemical; conditions: final concentration 10% HSA
Procedure: as §1

[5] = Run at 0.4M cells/well concentration of hepatocytes

| SMILES | Measured Compound Concentrations Liver - 4 h [1] | Measured Compound Concentrations Liver - 24 h [1] | Measured Compound Concentrations Plasma - 4 h [1] | Measured Compound Concentrations Plasma - 24 h [1] | IC50 [3] [nM] | IC50 [4] [nM] | IC50 ([2]; 0.1 M cells/well) [nM] | IC50 [2, 5] [nM] |
| --- | --- | --- | --- | --- | --- | --- | --- | --- |
| N#Cc1cc(-c2nn(-c3nc(C(=O)O)cs3)c(CC3CC3)c2Cc2ccc(S(N)(=O)=O)c(F)c2)ccc1F [Example 2, 2-(3-(3-Cyano-4-fluorophenyl)-5-(cyclopropylmethyl)-4-(3-fluoro-4-sulfamoylbenzyl)-1H-pyrazol-1-yl)thiazole-4-carboxylic acid] | +++ (10 μM≥+++>5 μM) | − (0.25 μM≥−) | − (0.25 μM≥−) | − (0.25 μM≥−) | < 1 | 1 to 10 | < 100 | – |
| N#Cc1cccc(-c2nn(-c3nc(C(=O)O)cs3)c(CC3CC3)c2Cc2ccc(S(N)(=O)=O)c(F)c2)c1 [Example 11, 2-(3-(3-cyanophenyl)-5-(cyclopropylmethyl)-4-(3-fluoro-4-sulfamoylbenzyl)-1H-pyrazol-1-yl)thiazole-4-carboxylic acid] | +++ (10 μM≥+++>5 μM) | − (0.25 μM≥−) | − (0.25 μM≥−) | − (0.25 μM≥−) | < 1 | 1 to 10 | < 100 | – |
| NS(=O)(=O)c1ccc(Cc2c(-c3cccc(F)c3)nn(-c3nc(C(=O)O)cs3)c2CC2CC2)cc1F [Example 14, 2-(5-(cyclopropylmethyl)-4-(3-fluoro-4-sulfamoylbenzyl)-3-(3-fluorophenyl)-1H-pyrazol-1-yl)thiazole-4-carboxylic acid] | ++++ (++++>10 μM) | + (1 μM≥+>0.25 μM) | − (0.25 μM≥−) | − (0.25 μM≥−) | < 1 | 1 to 10 | – | < 100 |
| NS(=O)(=O)c1ccc(Cc2c(-c3cc(F)cc(F)c3)nn(-c3nc(C(=O)O)cs3)c2CC2CC2)cc1F [Example 15, 2-(5-(cyclopropylmethyl)-3-(3,5-difluorophenyl)-4-(3-fluoro-4-sulfamoylbenzyl)-1H-pyrazol-1-yl)thiazole-4-carboxylic acid] | ++++ (++++>10 μM) | + (1 μM≥+>0.25 μM) | − (0.25 μM≥−) | − (0.25 μM≥−) | < 1 | 1 to 10 | – | < 100 |
| NS(=O)(=O)c1ccc(Cc2c(-c3ccc(Cl)cc3)nn(-c3nc(C(=O)O)cs3)c2CC2CC2)cc1F [Example 16, 2-(3-(4-chlorophenyl)-5-(cyclopropylmethyl)-4-(3-fluoro-4-sulfamoylbenzyl)-1H-pyrazol-1-yl)thiazole-4-carboxylic acid] | ++ (5 μM≥++>1 μM) | − (0.25 μM≥−) | − (0.25 μM≥−) | − (0.25 μM≥−) | < 1 | 10 to 100 | – | < 100 |
| NS(=O)(=O)c1ccc(Cc2c(-c3cccc(Cl)c3)nn(-c3nc(C(=O)O)cs3)c2CC2CC2)cc1F [Example 17, 2-(3-(3-chlorophenyl)-5-(cyclopropylmethyl)-4-(3-fluoro-4-sulfamoylbenzyl)-1H-pyrazol-1-yl)thiazole-4-carboxylic acid] | +++ (10 μM≥+++>5 μM) | − (0.25 μM≥−) | − (0.25 μM≥−) | − (0.25 μM≥−) | < 1 | 1 to 10 | < 100 | – |
| COc1cc(-c2nn(-c3nc(C(=O)O)cs3)c(CC3CC3)c2Cc2ccc(S(N)(=O)=O)c(F)c2)ccc1C#N [Example 23, 2-(3-(4-cyano-3-methoxyphenyl)-5-(cyclopropylmethyl)-4-(3-fluoro-4-sulfamoylbenzyl)-1H-pyrazol-1-yl)thiazole-4-carboxylic acid] | – | – | – | – | < 1 | 1 to 10 | < 100 | – |
| NS(=O)(=O)c1c(F)cc(Cc2c(-c3ccc(F)cc3)nn(-c3nc(C(=O)O)cs3)c2CC2CC2)cc1F [Example 27, 2-(5-(Cyclopropylmethyl)-4-(3,5-difluoro-4-sulfamoylbenzyl)-3-(4-fluorophenyl)-1H-pyrazol-1-yl)thiazole-4-carboxylic acid] | – | – | – | – | < 1 | 1 to 10 | 100 to 250 | – |

More lines, main results first:

| Measured Compound Concentrations Liver - 4 h [1] | Measured Compound Concentrations Liver - 24 h [1] | Measured Compound Concentrations Plasma - 4 h [1] | Measured Compound Concentrations Plasma - 24 h [1] | IC50 [3] [nM] | IC50 [4] [nM] | SMILES | IC50 ([2]; 0.1 M cells/well) [nM] | IC50 [2, 5] [nM] |
| --- | --- | --- | --- | --- | --- | --- | --- | --- |
| ++++ (++++>10 μM) | + (1 μM≥+>0.25 μM) | − (0.25 μM≥−) | − (0.25 μM≥−) | < 1 | 1 to 10 | NS(=O)(=O)c1ccc(Cc2c(-c3ccc(F)cc3)nn(-c3nc(C(=O)O)cs3)c2CC2CC2)cc1F [Example 1, 2-(5-(cyclopropylmethyl)-4-(3-fluoro-4-sulfamoylbenzyl)-3-(4-fluorophenyl)-1H-pyrazol-1-yl)thiazole-4-carboxylic acid] | < 100 | – |
| +++ (10 μM≥+++>5 μM) | − (0.25 μM≥−) | − (0.25 μM≥−) | − (0.25 μM≥−) | < 1 | 1 to 10 | NS(=O)(=O)c1ccc(Cc2c(-c3ccc(F)c(Cl)c3)nn(-c3nc(C(=O)O)cs3)c2CC2CC2)cc1F [Example 8, 2-(3-(3-Chloro-4-fluorophenyl)-5-(cyclopropylmethyl)-4-(3-fluoro-4-sulfamoylbenzyl)-1H-pyrazol-1-yl)thiazole-4-carboxylic acid] | – | 100 to 250 |
| ++ (5 μM≥++>1 μM) | − (0.25 μM≥−) | − (0.25 μM≥−) | − (0.25 μM≥−) | < 1 | 1 to 10 | NS(=O)(=O)c1ccc(Cc2c(-c3ccc(F)cc3)nn(-c3nc(C(=O)O)co3)c2CC2CC2)cc1F [Example 9, 2-(5-(Cyclopropylmethyl)-4-(3-fluoro-4-sulfamoylbenzyl)-3-(4-fluorophenyl)-1H-pyrazol-1-yl)oxazole-4-carboxylic acid] | – | 100 to 250 |
| +++ (10 μM≥+++>5 μM) | − (0.25 μM≥−) | − (0.25 μM≥−) | − (0.25 μM≥−) | < 1 | 1 to 10 | NS(=O)(=O)c1ccc(Cc2c(-c3ccc(F)c(F)c3)nn(-c3nc(C(=O)O)cs3)c2CC2CC2)cc1F [Example 12, 2-(5-(Cyclopropylmethyl)-3-(3,4-difluorophenyl)-4-(3-fluoro-4-sulfamoylbenzyl)-1H-pyrazol-1-yl)thiazole-4-carboxylic acid] | < 100 | – |
| – | – | – | – | 1 to 10 | 1 to 10 | COc1cc(F)cc(-c2nn(-c3nc(C(=O)O)cs3)c(CC3CC3)c2Cc2ccc(S(N)(=O)=O)c(F)c2)c1 [Example 24, 2-(5-(cyclopropylmethyl)-4-(3-fluoro-4-sulfamoylbenzyl)-3-(3-fluoro-5-methoxyphenyl)-1H-pyrazol-1-yl)thiazole-4-carboxylic acid] | < 100 | – |
